Tested on: FGFR
Assay: Kinase inhibition, cell-free enzymatic assay
Type: biochemical
Settings: 1 mM ATP

Cc1ccc(F)c(NC(=O)Nc2ccc(-c3cccc4[nH]nc(N)c34)cc2)c1 [RTK Inhibitor, N-[4-(3-amino-1H-indazol-4-yl)phenyl]-N′-(2-fluoro-5-methylphenyl)urea]
IC50: > 12.5 µM
